“Also recorded” adds a separate entry of the source.
Legend:
[1] = tested on: splenocytes of pTHr.HIVA immunized mice; experiment: IFN-γ ELISPOT immunogenicity of HIVA; format: cell-based, BALB/c mice; conditions: Figure 1B and D top
CD8^+CD107a/b^+ T cells = experiment: Multicolour flow cytometry after mixed or split vaccination; format: cell-based, BALB/c mice
[2] = tested on: splenocytes of DNA-immunized mice; experiment: IFN-γ ELISPOT and ICS with modified HIVA immunogens; format: cell-based, BALB/c mice; conditions: dHmP-immunized group; ELISPOT, ICS and in vivo killing
Excerpt: To further investigate this phenomenon, we serially inactivated CD8^+ T cell epitopes in the order of their immunodominance. To maintain the HIVA protein integrity, epitopes P and G1 were mutated rather than deleted by substituting the anchor amino acid residues required for a strong binding to the H-2K^d molecule (Figure 2A). The resulting double and triple mutants of the HIVA immunogen were called dHmP and dHmPG1, respectively. […] Groups of BALB/c mice were immunized 2x using the modified HIVA immunogens vectored by plasmid DNA and the immune responses were measured in IFN-γ ELISPOT, ICS and in vivo killing assays. […] Second, consistently in all three assays, immune responses directed against subdominant epitopes were serially recovered, however, not to the same extent. […] Because the response to the G2 epitope remained undetectable even in the dHmPG1-immunized mice, overlapping 15/11 peptides across the whole HIVA immunogen were used again to search for another yet unidentified epitope of a higher rank. […] (Figure 2D). […] Thus, step-wise deletion of immunodominant CD8^+ T cell epitopes restores responses to the subdominant epitopes in the hierarchy.
Figure 2 Serial up-ranking of epitopes. A) Groups of 4 BALB/c mice were immunized 2x i.m. with 100 µg of DNA at a 2-wk interval. Two wk later, splenocytes were assessed in an ELISPOT assay for production of IFN-γ upon re-stimulation with peptides indicated above. Shown are schematic diagrams of HIVA and the three modified immunogens with representative examples of the ELISPOT well images. B) Mice were immunized as in A and 4 wk later, splenocytes were assessed in an ICS assay to measure CD8^+ T cells secreting IFN-γ upon re-stimulation with peptide indicated in the top left corner. Group means±SD are shown. C) Identical groups of mice were assessed for cytolytic activity in an in vivo lysis of syngeneic peptide-pulsed cells transferred into naïve or vaccinated animals. Representative examples of dot plots are shown (top) and the peptide-specific lyses are expressed as a group mean±SD (bottom). D) Groups of 3 BALB/c mice were immunized 3x with 100 µg of DNA indicated above the dot plot in 2-wk intervals and the designated NPP peptide-specific responses were assessed by IFN-γ ICS 2 wk later. The FACS plots are representative examples with IFN-γ producing cells as a percentage of CD8^+ splenocytes shown in the top right panels. All experiments were repeated at least once. TEXT PRINTED IN THE PICTURE: (D) HIVA: 0.05 | (D) HIVAdH: 0.09 | (D) dHmP: 0.08 | (D) dHmPG1: 0.57 DOUBTS OF THE COPYIST ABOUT THIS PICTURE: Panel D: the numbers in the top right quadrants of the CD8 / IFN-γ dot plots are printed without a measure or unit, so they are copied as bare numbers.
The ELISPOT assay was performed using the Mouse IFN-γ ELISpot kit (Mabtech) according to the manufacturer's instructions. Spots were visualised using sequential applications of a biotin-conjugated secondary anti-IFN-γ mAb (R4-6A2, Rat IgG1), an alkaline phosphatase and a chromogenic substrate (Bio-Rad) and counted using the AID ELISpot Reader System (Autoimmun Diagnostika).

EcoHIV/NDK = EcoHIV/NDK challenge; conditions: Figure 7C and D; 2x 100 µg DNA, challenge 5 d later; splenocytes and peritoneal macrophages, qPCR
[3] = tested on: syngeneic peptide-pulsed cells; experiment: in vivo killing assay (lysis of syngeneic peptide-pulsed cells); design: species or system BALB/c mice; conditions: HIVAdH vaccinated relative to HIVA vaccination; Figure 1F

## AMQMLKDTI [G1, H-2K^d-restricted, Gag residues 197–205]
[1]
  T cell response to G1 from HIVA: hardly detectable responses
CD8^+CD107a/b^+ T cells; Figure 4B groups 4 and 5, HIVA-dHmP and dHmP-HIVA prime-boost, 23-wk rest, WR.HIVA re-stimulation
  G1-specific response relative to epitopes H and P: significantly increased
CD8^+CD107a/b^+ T cells; Figure 4B groups 7 and 9, pre-mixed vaccines injected into 2 sites
  anti-G1 responses: failed to induce anti-G1 responses
[2]
  restoration of G1-specific T cell responses: significant restoration of G1-specific T cell responses, now comparable to those against H and restored P
EcoHIV/NDK
  protection against EcoHIV/NDK challenge: sufficient to induce protective efficacy; also recorded: enhanced clearance of EcoHIV/NDK infection
[3]
  in vivo lysis of peptide-pulsed targets: increased in vivo lysis

From paper PMC3098219, “Protective Efficacy of Serially Up-Ranked Subdominant CD8^+ T Cell Epitopes against Virus Challenges” (PLoS Pathogens, 2011)
